Measurements as given in the CheMixHub viscosity set.
± gives the uncertainty stated by the source.

Test: xn = mol fraction of the nth substance listed

Which viscosity (303.15 K, 101 kPa, x2 = 0.1082) does the source give for `ClC(Cl)C(Cl)Cl` + CCCCCCCO here?
Its viscosity is 1.677 ± 0.04 mPa·s.

And the viscosity (303.15 K, 101 kPa, x2 = 0.2331)?
The viscosity was 1.902 ± 0.041 mPa·s.

What about the viscosity (303.15 K, 101 kPa, x2 = 0.3041) of the same molecule?
The viscosity was 2.042 ± 0.041 mPa·s.

And the viscosity (303.15 K, 101 kPa, x2 = 0.3446)?
Its viscosity is 2.126 ± 0.042 mPa·s.

What about the viscosity (303.15 K, 101 kPa, x2 = 0.4479) of the same molecule?
The viscosity was 2.367 ± 0.042 mPa·s.

And the viscosity (303.15 K, 101 kPa, x2 = 0.5205)?
Its viscosity is 2.568 ± 0.042 mPa·s.

What about the viscosity (303.15 K, 101 kPa, x2 = 0.6548) of the same molecule?
The viscosity was 3.047 ± 0.042 mPa·s.

And the viscosity (303.15 K, 101 kPa, x2 = 0.781)?
Its viscosity is 3.616 ± 0.043 mPa·s.

What about the viscosity (303.15 K, 101 kPa, x2 = 0.8562) of the same molecule?
Its viscosity is 4.014 ± 0.043 mPa·s.

What about the viscosity (303.15 K, 101 kPa, x2 = 0.9304) of the same molecule?
The viscosity was 4.446 ± 0.042 mPa·s.

For `COCCOCCOC` + CCCCCCO, which viscosity (293.15 K, 101 kPa, x1 = 0.04448) is on record?
The viscosity was 4.368 ± 0.047 mPa·s.

What about the viscosity (293.15 K, 101 kPa, x1 = 0.105) of the same molecule?
Its viscosity is 3.527 ± 0.037 mPa·s.

What about the viscosity (293.15 K, 101 kPa, x1 = 0.1942) of the same molecule?
The viscosity was 2.714 ± 0.029 mPa·s.

What about the viscosity (293.15 K, 101 kPa, x1 = 0.3018) of the same molecule?
The viscosity was 2.148 ± 0.023 mPa·s.

What about the viscosity (293.15 K, 101 kPa, x1 = 0.4004) of the same molecule?
Its viscosity is 1.796 ± 0.019 mPa·s.

What about the viscosity (293.15 K, 101 kPa, x1 = 0.4511) of the same molecule?
Its viscosity is 1.674 ± 0.017 mPa·s.

What about the viscosity (293.15 K, 101 kPa, x1 = 0.6059) of the same molecule?
Its viscosity is 1.383 ± 0.014 mPa·s.

And the viscosity (293.15 K, 101 kPa, x1 = 0.6997)?
The viscosity was 1.285 ± 0.013 mPa·s.

And the viscosity (293.15 K, 101 kPa, x1 = 0.7893)?
The viscosity was 1.204 ± 0.012 mPa·s.

What about the viscosity (293.15 K, 101 kPa, x1 = 0.9139) of the same molecule?
The viscosity was 1.128 ± 0.011 mPa·s.

What about the viscosity (293.15 K, 101 kPa, x1 = 0.9331) of the same molecule?
Its viscosity is 1.117 ± 0.011 mPa·s.

And the viscosity (303.15 K, 101 kPa, x1 = 0.04385)?
Its viscosity is 3.29 ± 0.035 mPa·s.

And the viscosity (303.15 K, 101 kPa, x1 = 0.09867)?
The viscosity was 2.69 ± 0.029 mPa·s.

And the viscosity (303.15 K, 101 kPa, x1 = 0.1894)?
Its viscosity is 2.153 ± 0.023 mPa·s.

And the viscosity (303.15 K, 101 kPa, x1 = 0.2974)?
The viscosity was 1.72 ± 0.018 mPa·s.

And the viscosity (303.15 K, 101 kPa, x1 = 0.4047)?
Its viscosity is 1.435 ± 0.015 mPa·s.

And the viscosity (303.15 K, 101 kPa, x1 = 0.4914)?
Its viscosity is 1.28 ± 0.013 mPa·s.

And the viscosity (303.15 K, 101 kPa, x1 = 0.6035)?
The viscosity was 1.141 ± 0.012 mPa·s.

What about the viscosity (303.15 K, 101 kPa, x1 = 0.7106) of the same molecule?
Its viscosity is 1.046 ± 0.011 mPa·s.

What about the viscosity (303.15 K, 101 kPa, x1 = 0.7884) of the same molecule?
The viscosity was 0.996 ± 0.01 mPa·s.

And the viscosity (303.15 K, 101 kPa, x1 = 0.9193)?
The viscosity was 0.945 ± 0.01 mPa·s.

What about the viscosity (303.15 K, 101 kPa, x1 = 0.942) of the same molecule?
Its viscosity is 0.937 ± 0.01 mPa·s.

What about the viscosity (313.15 K, 101 kPa, x1 = 0.04597) of the same molecule?
The viscosity was 2.536 ± 0.027 mPa·s.

What about the viscosity (313.15 K, 101 kPa, x1 = 0.09846) of the same molecule?
The viscosity was 2.162 ± 0.023 mPa·s.

What about the viscosity (313.15 K, 101 kPa, x1 = 0.1996) of the same molecule?
Its viscosity is 1.706 ± 0.018 mPa·s.

And the viscosity (313.15 K, 101 kPa, x1 = 0.2989)?
The viscosity was 1.412 ± 0.015 mPa·s.

And the viscosity (313.15 K, 101 kPa, x1 = 0.4011)?
The viscosity was 1.226 ± 0.013 mPa·s.

And the viscosity (313.15 K, 101 kPa, x1 = 0.4983)?
The viscosity was 1.089 ± 0.011 mPa·s.

And the viscosity (313.15 K, 101 kPa, x1 = 0.5998)?
Its viscosity is 0.991 ± 0.01 mPa·s.

What about the viscosity (313.15 K, 101 kPa, x1 = 0.7041) of the same molecule?
The viscosity was 0.916 ± 0.009 mPa·s.

And the viscosity (313.15 K, 101 kPa, x1 = 0.7993)?
Its viscosity is 0.866 ± 0.009 mPa·s.

What about the viscosity (313.15 K, 101 kPa, x1 = 0.9072) of the same molecule?
Its viscosity is 0.825 ± 0.008 mPa·s.

And the viscosity (313.15 K, 101 kPa, x1 = 0.942)?
Its viscosity is 0.815 ± 0.008 mPa·s.

Which results are given for `CCCCCCn1cc[n+](C)c1.F[B-](F)(F)F` + CCCCCO?
viscosity (315 K, 101.33 kPa, x1 = 0.135): 5.305 ± 0.53 mPa·s; viscosity (315.75 K, 101.33 kPa, x1 = 0.135): 4.745 ± 0.16 mPa·s

Which results are given for `CCCCCCN` + CCCCN(CCCC)CCCC?
viscosity (303.15 K, 101 kPa, x2 = 0.1032): 0.7562 ± 0.0071 mPa·s; viscosity (303.15 K, 101 kPa, x2 = 0.1936): 0.7958 ± 0.0073 mPa·s; viscosity (303.15 K, 101 kPa, x2 = 0.3936): 0.8857 ± 0.0078 mPa·s; viscosity (303.15 K, 101 kPa, x2 = 0.4924): 0.9301 ± 0.0081 mPa·s; viscosity (303.15 K, 101 kPa, x2 = 0.6079): 0.9836 ± 0.0084 mPa·s; viscosity (303.15 K, 101 kPa, x2 = 0.782): 1.063 ± 0.0089 mPa·s; viscosity (303.15 K, 101 kPa, x2 = 0.9153): 1.125 ± 0.0093 mPa·s; viscosity (313.15 K, 101 kPa, x2 = 0.1032): 0.6517 ± 0.0065 mPa·s; viscosity (313.15 K, 101 kPa, x2 = 0.1936): 0.6853 ± 0.0067 mPa·s; viscosity (313.15 K, 101 kPa, x2 = 0.3936): 0.7606 ± 0.0071 mPa·s; viscosity (313.15 K, 101 kPa, x2 = 0.4924): 0.7985 ± 0.0073 mPa·s; viscosity (313.15 K, 101 kPa, x2 = 0.6079): 0.8436 ± 0.0076 mPa·s; viscosity (313.15 K, 101 kPa, x2 = 0.782): 0.9122 ± 0.008 mPa·s; viscosity (313.15 K, 101 kPa, x2 = 0.9153): 0.9652 ± 0.0083 mPa·s

Which viscosity (298.16 K, 101 kPa, x1 = 0.5219) does the source give for `Oc1ccccc1` + CCCCN(CCCC)CCCC here?
Its viscosity is 9.41 ± 0.17 mPa·s.

And the viscosity (298.16 K, 101 kPa, x1 = 0.6008)?
The viscosity was 14.9 ± 0.27 mPa·s.

What about the viscosity (298.16 K, 101 kPa, x1 = 0.6531) of the same molecule?
The viscosity was 23.52 ± 0.45 mPa·s.

What about the viscosity (298.16 K, 101 kPa, x1 = 0.6723) of the same molecule?
The viscosity was 27.66 ± 0.56 mPa·s.

What about the viscosity (298.16 K, 101 kPa, x1 = 0.7083) of the same molecule?
The viscosity was 43.54 ± 0.99 mPa·s.

What about the viscosity (298.16 K, 101 kPa, x1 = 0.7386) of the same molecule?
The viscosity was 64.37 ± 1.7 mPa·s.

What about the viscosity (298.16 K, 101 kPa, x1 = 0.7532) of the same molecule?
Its viscosity is 78.43 ± 2.3 mPa·s.

And the viscosity (298.16 K, 101 kPa, x1 = 0.7783)?
Its viscosity is 108.3 ± 3.7 mPa·s.

What about the viscosity (298.16 K, 101 kPa, x1 = 0.7981) of the same molecule?
The viscosity was 126.2 ± 4.7 mPa·s.

What about the viscosity (298.16 K, 101 kPa, x1 = 0.8207) of the same molecule?
The viscosity was 131.2 ± 5 mPa·s.

And the viscosity (298.16 K, 101 kPa, x1 = 0.8248)?
The viscosity was 125.7 ± 4.7 mPa·s.

What about the viscosity (298.16 K, 101 kPa, x1 = 0.8491) of the same molecule?
The viscosity was 110.5 ± 3.8 mPa·s.

And the viscosity (298.16 K, 101 kPa, x1 = 0.8704)?
The viscosity was 84.32 ± 2.5 mPa·s.

And the viscosity (298.16 K, 101 kPa, x1 = 0.9022)?
Its viscosity is 56.08 ± 1.3 mPa·s.

What about the viscosity (298.16 K, 101 kPa, x1 = 0.9213) of the same molecule?
Its viscosity is 40.37 ± 0.81 mPa·s.

And the viscosity (298.16 K, 101 kPa, x1 = 0.9711)?
The viscosity was 20.65 ± 0.31 mPa·s.
